Where two headings read alike, the source gives them in different places.
Assays:
human kallikrein 7 = human kallikrein 7 (Homo sapiens, UniProt P49862); assay: Kallikrein-7 inhibitory activity in vitro (fluorescence-quenched substrate); assay type: biochemical
Protocol: (§1) IC50 for human kallikrein can be measured using the fluorescence-quenched substrate Ac-Glu-Asp(EDANS)-Lys-Pro-Ale-Leu-Phe^Arg-Leu-Gly-Lys(DABCYL)-Glu-NH2 (where ^ indicates the scissile bond, identified by MS analysis) which can be purchased from Biosyntan (Berlin, Germany). Enzymatic reactions are conducted in 50 mM sodium citrate buffer at pH 5.6 containing 150 mM NaCl and 0.05% (w/v) CHAPS. For the determination of IC50 values the assay is performed at room temperature in 384-well plates. All final assay volumes are 30 μl. Test compounds are dissolved in 90% (v/v) DMSO/water and diluted in water (containing 0.05% (w/v) CHAPS) to 3-times the desired assay concentration. The 11 final compound concentrations are: 0.3 nM, 1 nM, 3 nM, 10 nM, 30 nM, 100 nM, 300 nM, 1 μM, 3 μM, 10 μM and 30 μM. For each assay, 10 μl water/CHAPS (±test compound) are added per well, followed by 10 μl protease solution (diluted with 1.5× assay buffer). The protease concentration in final assay solution is 0.2 nM (according to the enzyme concentrations determined by the Bradford method). After 1 hour of incubation at room temperature, the reaction is started by addition of 10 μl substrate solution (substrate dissolved in 1.5× assay buffer, final concentration is 2 μM). […] The IC50 value is calculated from the plot of percentage of inhibition vs. inhibitor concentration using non-linear regression analysis software (XLfit, Vers. 4.0; ID Business Solution Ltd., Guildford, Surrey, UK).
The fluorescence-quenched substrate Ac-Glu-Asp(EDANS)-Lys-Pro-Ale-Leu-Phe^Arg-Leu-Gly-Lys(DABCYL)-Glu-NH2 (where ^ indicates the scissile bond, identified by MS analysis) is purchased from Biosyntan (Berlin, Germany) and kept as a 5 mM stock solution in DMSO at −20° C. All other chemicals are of analytical grade.
Enzymatic reactions are conducted in 50 mM sodium citrate buffer at pH 5.6 containing 150 mM NaCl and 0.05% (w/v) CHAPS.
All protein and peptide containing solutions are handled in siliconized tubes (Life Systems Design, Merenschwand, Switzerland). The compound solutions as well as the enzyme and the substrate solutions are transferred to the 384-well plates (black Cliniplate; cat. no. 95040020 Labsystems Oy, Finland) by means of a CyBi-Well 96-channel pipettor (CyBio AG, Jena, Germany).
(§2) For fluorescence intensity (FI) measurements an Ultra Evolution reader (TECAN, Maennedorf, Switzerland) is used. The instrument is equipped with a combination of a 350 nm (20 nm bandwidth) and a 500 nm (25 nm bandwidth) bandpass filter for fluorescence excitation and emission acquisition, respectively. To increase the signal:background ratio, an appropriate dichroic mirror is employed. The optical filters and the dichroic mirror are purchased from TECAN. The fluorophores in each well are excited by three flashes per measurement.
as §1, with “For” for “IC50 for human kallikrein can be measured using the fluorescence-quenched substrate Ac-Glu-Asp(EDANS)-Lys-Pro-Ale-Leu-Phe^Arg-Leu-Gly-Lys(DABCYL)-Glu-NH2 (where ^ indicates the scissile bond, identified by MS analysis) which can be purchased from Biosyntan (Berlin, Germany). Enzymatic reactions are conducted in 50 mM sodium citrate buffer at pH 5.6 containing 150 mM NaCl and 0.05% (w/v) CHAPS. For”, “volumes were” for “volumes are”, “concentration was” for “concentration is”

[1] = biological target: T1, Human neutrophil elastase (Homo sapiens, UniProt P08246); assay: HNE inhibitory activity in vitro (fluorescence-quenched substrate); assay type: biochemical
T1 construct: purchased Elastin Products Company, Inc. (EPC, Owensville, USA) SE563
T1 sequence (P08246 30-267): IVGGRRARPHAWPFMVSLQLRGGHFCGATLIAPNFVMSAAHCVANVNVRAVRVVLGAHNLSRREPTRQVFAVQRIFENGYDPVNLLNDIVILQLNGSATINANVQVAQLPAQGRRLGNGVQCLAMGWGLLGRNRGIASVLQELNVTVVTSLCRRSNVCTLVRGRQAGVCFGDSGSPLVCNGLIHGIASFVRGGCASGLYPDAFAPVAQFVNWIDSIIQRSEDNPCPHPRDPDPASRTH
Protocol: Human neutrophil elastase (cat. no. SE563) is purchased from Elastin Products Company, Inc. (EPC, Owensville, USA). The dry powder (purity >95% stated by the supplier) was dissolved in 20 mM sodium acetate buffer, pH 5.0, 50% (v/v) glycerol, and frozen at −80° C. in aliquots.
The fluorescence-quenched substrate (DABCYL-Ser-Glu-Val^Asn-Leu-Asp-Ala-Glu-Phe-EDANS, where ^ indicates the scissile bond, identified by MS analysis) was purchased from Bachem AG (Bubendorf, Switzerland), and kept as a 5 mM stock solution in DMSO at −20° C. All other chemicals were of analytical grade.
Enzymatic reactions were conducted in 100 mM Tris/HCl buffer at pH 7.5, containing 500 mM NaCl, and 0.05% (w/v) CHAPS.
All protein and peptide containing solutions are handled in siliconized tubes (Life Systems Design, Merenschwand, Switzerland).
The compound solutions as well as the enzyme and the substrate solutions are transferred to the 384-well plates (black Cliniplate; cat. no. 95040020 Labsystems Oy, Finland) by means of a CyBi-Well 96-channel pipettor (CyBio AG, Jena, Germany).
as §2

[2] = Table 11, read-out: hKallikrein7 IC 50
[3] = Table 11, read-out: human neutrophile elastase IC 50

human kallikrein 7, sequence (P49862 30-253): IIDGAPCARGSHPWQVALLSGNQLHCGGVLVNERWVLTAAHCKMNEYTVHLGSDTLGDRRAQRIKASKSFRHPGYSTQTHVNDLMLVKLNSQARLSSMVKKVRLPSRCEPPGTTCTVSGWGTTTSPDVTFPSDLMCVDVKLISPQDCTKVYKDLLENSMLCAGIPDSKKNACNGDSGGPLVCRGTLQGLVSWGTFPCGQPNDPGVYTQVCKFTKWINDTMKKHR

Row | SMILES | IC50 (human kallikrein 7; [2]) | IC50 [1, 3] | IC50 (human kallikrein 7; IC50 for human kallikrein 7) | IC50 (human kallikrein 7; hKallikrein7 IC 50, Table 11) | IC50 [1]
1 | CCC(C)C1NC(=O)C(Cc2ccc(O)cc2)N(C)C(=O)C(C(C)CC)N2CCCC(NC(=O)C(CC(C)C)NC(=O)C(NC(=O)C(CCC(N)=O)NC(=O)C(C)C)C(C)OC1=O)C2=O (stereo not drawn) [example 4] | 6 nM | 55 nM |  |  | 
2 | CCCOC1CCC2NC(=O)C(CC(C)C)NC(=O)C(NC(=O)C(CCC(N)=O)NC(=O)C(C)C)C(C)OC(=O)C(C(C)CC)NC(=O)C(Cc3ccc(O)cc3)N(C)C(=O)C(C(C)CC)N1C2=O (stereo not drawn) [example 5] |  |  | 9 nM | 8 nM | 5 nM
3 | CCCCCCCCOC1CCC2NC(=O)C(CC(C)C)NC(=O)C(NC(=O)C(CCC(N)=O)NC(=O)C(C)C)C(C)OC(=O)C(C(C)CC)NC(=O)C(Cc3ccc(O)cc3)N(C)C(=O)C(C(C)CC)N1C2=O (stereo not drawn) [example 6] |  |  |  | 95 nM | 55 nM
4 | CCC(C)C1NC(=O)C(Cc2ccc(O)cc2)N(C)C(=O)C(C(C)CC)N2C(=O)C(CCC2OCC(F)(F)F)NC(=O)C(CC(C)C)NC(=O)C(NC(=O)C(CCC(N)=O)NC(=O)C(C)C)C(C)OC1=O (stereo not drawn) [example 7] |  |  |  | 50 nM | 6 nM
5 | CCCCOC1CCC2NC(=O)C(CC(C)C)NC(=O)C(NC(=O)C(CCC(N)=O)NC(=O)C(C)C)C(C)OC(=O)C(C(C)CC)NC(=O)C(Cc3ccc(O)cc3)N(C)C(=O)C(C(C)CC)N1C2=O (stereo not drawn) [example 11] |  |  |  | 6 nM | 12 nM
6 | CCC(C)C1NC(=O)C(Cc2ccc(O)cc2)N(C)C(=O)C(C(C)CC)N2C(=O)C(CCC2OCC(C)C)NC(=O)C(CC(C)C)NC(=O)C(NC(=O)C(CCC(N)=O)NC(=O)C(C)C)C(C)OC1=O (stereo not drawn) [example 12] |  |  |  | 8.5 nM | 6 nM
7 | CCC(C)C1NC(=O)C(Cc2ccc(O)cc2)N(C)C(=O)C(C(C)CC)N2C(=O)C(CCC2OCCOC)NC(=O)C(CC(C)C)NC(=O)C(NC(=O)C(CCC(N)=O)NC(=O)C(C)C)C(C)OC1=O (stereo not drawn) [example 13] |  |  |  | 6 nM | 4 nM
8 | CCC(C)C1NC(=O)C(Cc2ccc(O)cc2)N(C)C(=O)C(C(C)CC)N2C(=O)C(CCC2OCCO)NC(=O)C(CC(C)C)NC(=O)C(NC(=O)C(CCC(N)=O)NC(=O)C(C)C)C(C)OC1=O (stereo not drawn) [example 14] |  |  |  | 10 nM | 5 nM
9 | CCC(C)C1NC(=O)C(Cc2ccc(O)cc2)N(C)C(=O)C(C(C)CC)N2C(=O)C(CCC2OCCOCCO)NC(=O)C(CC(C)C)NC(=O)C(NC(=O)C(CCC(N)=O)NC(=O)C(C)C)C(C)OC1=O (stereo not drawn) [example 15] |  |  |  | 15 nM | 5 nM
10 | CCC(C)C1NC(=O)C(Cc2ccc(O)cc2)N(C)C(=O)C(C(C)CC)N2C(=O)C(CCC2OCCOCCOC)NC(=O)C(CC(C)C)NC(=O)C(NC(=O)C(CCC(N)=O)NC(=O)C(C)C)C(C)OC1=O (stereo not drawn) [example 16] |  |  |  | 15 nM | 5 nM
11 | CCC(C)C1NC(=O)C(Cc2ccc(O)cc2)N(C)C(=O)C(C(C)CC)N2C(=O)C(CCC2OC)NC(=O)C(CC(C)C)NC(=O)C(NC(=O)C(CCC(N)=O)NC(=O)C(C)C)C(C)OC1=O (stereo not drawn) [example 17] |  |  |  | 3 nM | 7.5 nM
12 | C#CCOC1CCC2NC(=O)C(CC(C)C)NC(=O)C(NC(=O)C(CCC(N)=O)NC(=O)C(C)C)C(C)OC(=O)C(C(C)CC)NC(=O)C(Cc3ccc(O)cc3)N(C)C(=O)C(C(C)CC)N1C2=O (stereo not drawn) [example 18] |  |  |  | 5 nM | 2.5 nM
13 | CCC(C)C1NC(=O)C(Cc2ccc(O)cc2)N(C)C(=O)C(C(C)CC)N2C(=O)C(CCC2OC)NC(=O)C(CC(C)C)NC(=O)C(NC(=O)C(CCC(=O)OC)NC(=O)C(C)C)C(C)OC1=O (stereo not drawn) [example 20] |  |  |  | 1.5 nM | 8 nM
14 | CCC(C)C1NC(=O)C(Cc2ccc(O)cc2)N(C)C(=O)C(C(C)CC)N2C(=O)C(CCC2O)NC(=O)C(CC(C)C)NC(=O)C(NC(=O)C(CCC#N)NC(=O)C(C)C)C(C)OC1=O (stereo not drawn) [example 21] | 2.5 nM | 9 nM |  |  | 
15 | CCC(C)C1NC(=O)C(Cc2ccc(O)cc2)N(C)C(=O)C(C(C)CC)N2CCCC(NC(=O)C(CC(C)C)NC(=O)C(NC(=O)C(CCC#N)NC(=O)C(C)C)C(C)OC1=O)C2=O (stereo not drawn) [example 22] | 6 nM | 40 nM |  |  | 
16 | CCCOC1CCC2NC(=O)C(CC(C)C)NC(=O)C(NC(=O)C(CCC#N)NC(=O)C(C)C)C(C)OC(=O)C(C(C)CC)NC(=O)C(Cc3ccc(O)cc3)N(C)C(=O)C(C(C)CC)N1C2=O (stereo not drawn) [example 24] | 7 nM | 4 nM |  |  | 
17 | CCCCCCOC(=O)Oc1ccc(CC2C(=O)NC(C(C)CC)C(=O)OC(C)C(NC(=O)C(CCC(N)=O)NC(=O)C(C)C)C(=O)NC(CC(C)C)C(=O)NC3CCC(O)N(C3=O)C(C(C)CC)C(=O)N2C)cc1 (stereo not drawn) [example 26] | 0.85 nM | 4.5 nM |  |  | 
18 | CCC(C)[C@@H]1NC(=O)[C@H](Cc2ccc(OC(=O)OCC(C)C)cc2)N(C)C(=O)[C@H](C(C)CC)N2CCCC(NC(=O)[C@H](CC(C)C)NC(=O)[C@@H](NC(=O)[C@H](CCC(N)=O)NC(=O)C(C)C)[C@@H](C)OC1=O)C2=O (stereo partly drawn) [example 27] |  |  |  | 3 nM | 20 nM
19 | CCC(C)C1NC(=O)C(Cc2ccc(OC(=O)OCCOC)cc2)N(C)C(=O)C(C(C)CC)N2CCCC(NC(=O)C(CC(C)C)NC(=O)C(NC(=O)C(CCC(N)=O)NC(=O)C(C)C)C(C)OC1=O)C2=O (stereo not drawn) [example 28] | 2.5 nM | 30 nM |  |  | 
20 | CCOC(=O)Oc1ccc(C[C@H]2C(=O)N[C@@H](C(C)CC)C(=O)O[C@H](C)[C@H](NC(=O)[C@H](CCC(N)=O)NC(=O)C(C)C)C(=O)N[C@@H](CC(C)C)C(=O)NC3CCCN(C3=O)[C@@H](C(C)CC)C(=O)N2C)cc1 (stereo partly drawn) [example 29] | 3 nM | 25 nM |  |  | 
21 | CCC(C)C1NC(=O)C(Cc2ccc(OC(=O)OC3CCC4(C)C(=CCC5C4CCC4(C)C(C(C)CCCC(C)C)CCC54)C3)cc2)N(C)C(=O)C(C(C)CC)N2CCCC(NC(=O)C(CC(C)C)NC(=O)C(NC(=O)C(CCC(N)=O)NC(=O)C(C)C)C(C)OC1=O)C2=O (stereo not drawn) [example 30] | 1050 nM | 4550 nM |  |  | 
22 | CCCCCCCCOC(=O)Oc1ccc(C[C@H]2C(=O)N[C@@H](C(C)CC)C(=O)O[C@H](C)[C@H](NC(=O)[C@H](CCC(N)=O)NC(=O)C(C)C)C(=O)N[C@@H](CC(C)C)C(=O)NC3CCCN(C3=O)[C@@H](C(C)CC)C(=O)N2C)cc1 (stereo partly drawn) [example 31] | 200 nM | 300 nM |  |  | 

Reference: patent publication US9127044B2, “Cyclic depsipeptides” (NOVARTIS AG, priority 2007, dated 2015)
